Experiments:
[1] = biological target: ALK tyrosine kinase receptor (Homo sapiens) (UniProt Q9UM73); assay: Inhibition of human ALK (1058 to end residues) assessed as residual activity at 1 uM using KKKSPGEYVNIEFG as substrate incubated for 40 mins in presence of [gamma-33ATP] by scintillation counting based radiometry assay relative to control
[2] = biological target: 5'-AMP-activated protein kinase catalytic subunit alpha-1 (Homo sapiens) (UniProt Q13131); assay: Inhibition of recombinant full length human AMPKalpha1 assessed as residual activity at 1 uM using AMARAASAAALAR as substrate incubated for 40 mins in presence of [gamma-33ATP] by scintillation counting based radiometry assay relative to control
[3] = system: CDK18/Cyclin Y (Homo sapiens), Q07002+Q8ND76 [T166M]; assay: Inhibition of recombinant full length human CDK18 /cyclinY T166M mutant assessed as residual activity at 1 uM using YRRAAVPPSPSLS as substrate incubated for 40 mins in presence of [gamma-33ATP] by scintillation counting based radiometry assay relative to control; assay type: protein-complex assay
[4] = biological target: Dual specificity protein kinase CLK1 (Homo sapiens) (UniProt P49759); assay: Inhibition of recombinant human CLK1 (130 to end residues) assessed as residual activity at 1 uM using ERMRPRKRQGSVR as substrate incubated 40 mins in presence of [gamma-33ATP] by scintillation counting based radiometry assay relative to control
Chain of Dual specificity protein kinase CLK1 (Homo sapiens) (P49759 whole entry, looked up): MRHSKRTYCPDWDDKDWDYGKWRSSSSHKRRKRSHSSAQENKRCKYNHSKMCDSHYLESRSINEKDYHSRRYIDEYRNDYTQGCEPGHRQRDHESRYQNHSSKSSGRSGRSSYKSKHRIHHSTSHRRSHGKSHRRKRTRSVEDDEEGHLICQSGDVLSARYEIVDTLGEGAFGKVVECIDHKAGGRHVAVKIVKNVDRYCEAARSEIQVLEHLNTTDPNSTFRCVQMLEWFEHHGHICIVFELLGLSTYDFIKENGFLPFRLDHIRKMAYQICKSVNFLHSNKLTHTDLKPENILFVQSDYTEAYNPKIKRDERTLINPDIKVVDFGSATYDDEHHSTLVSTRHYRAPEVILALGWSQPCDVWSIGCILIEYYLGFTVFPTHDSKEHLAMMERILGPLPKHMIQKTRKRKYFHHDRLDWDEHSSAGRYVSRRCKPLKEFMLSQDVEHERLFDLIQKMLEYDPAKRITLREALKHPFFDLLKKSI

[5] = biological target: Dual specificity tyrosine-phosphorylation-regulated kinase 1B (Homo sapiens) (UniProt Q9Y463); assay: Inhibition of recombinant human DYRK1B assessed as residual activity at 1 uM using RRRFRPASPLRGPPK as substrate at 40 mins in presence of [gamma-33ATP] by scintillation counting based radiometry assay relative to control
[6] = biological target: Dual specificity tyrosine-phosphorylation-regulated kinase 3 (Homo sapiens) (UniProt O43781); assay: Inhibition of recombinant human DYRK3 assessed as residual activity at 1 uM using RRRFRPASPLRGPPK as substrate at 40 mins in presence of [gamma-33ATP] by scintillation counting based radiometry assay relative to control
[7] = biological target: Ephrin type-B receptor 4 (Homo sapiens) (UniProt P54760); assay: Inhibition of recombinant human EphB4 (561 to end residues) assessed as residual activity at 1 uM using poly(Glu, Tyr) 4:1 as substrate at 40 mins in presence of [gamma-33ATP] by scintillation counting based radiometry assay relative to control
[8] = system: Fibroblast growth factor receptor 2 (Homo sapiens), P21802 [N549H]; assay: Inhibition of recombinant human FGFR2 N549H mutant (456 to 770 residues) assessed as residual activity at 1 uM using GGEEEEYFELVKKKK as substrate at 40 mins in presence of [gamma-33ATP] by scintillation counting based radiometry assay relative to control
[9] = system: eIF-2-alpha kinase GCN2 (Homo sapiens), Q9P2K8 [E556G]; assay: Inhibition of recombinant full length human GCN2 E556G mutant assessed as residual activity at 1 uM using RSRSRSRSRSRSRSR as substrate at 40 mins in presence of [gamma-33ATP] by scintillation counting based radiometry assay relative to control
[10] = biological target: Serine/threonine-protein kinase haspin (Homo sapiens) (UniProt Q8TF76); assay: Inhibition of human Haspin (471 to end residues ) assessed as residual activity at 1 uM using RARTLSFAEPG as substrate after 40 mins by [gamma-33ATP] radiometric assay relative to control
Chain of Serine/threonine-protein kinase haspin (Homo sapiens) (Q8TF76 whole entry): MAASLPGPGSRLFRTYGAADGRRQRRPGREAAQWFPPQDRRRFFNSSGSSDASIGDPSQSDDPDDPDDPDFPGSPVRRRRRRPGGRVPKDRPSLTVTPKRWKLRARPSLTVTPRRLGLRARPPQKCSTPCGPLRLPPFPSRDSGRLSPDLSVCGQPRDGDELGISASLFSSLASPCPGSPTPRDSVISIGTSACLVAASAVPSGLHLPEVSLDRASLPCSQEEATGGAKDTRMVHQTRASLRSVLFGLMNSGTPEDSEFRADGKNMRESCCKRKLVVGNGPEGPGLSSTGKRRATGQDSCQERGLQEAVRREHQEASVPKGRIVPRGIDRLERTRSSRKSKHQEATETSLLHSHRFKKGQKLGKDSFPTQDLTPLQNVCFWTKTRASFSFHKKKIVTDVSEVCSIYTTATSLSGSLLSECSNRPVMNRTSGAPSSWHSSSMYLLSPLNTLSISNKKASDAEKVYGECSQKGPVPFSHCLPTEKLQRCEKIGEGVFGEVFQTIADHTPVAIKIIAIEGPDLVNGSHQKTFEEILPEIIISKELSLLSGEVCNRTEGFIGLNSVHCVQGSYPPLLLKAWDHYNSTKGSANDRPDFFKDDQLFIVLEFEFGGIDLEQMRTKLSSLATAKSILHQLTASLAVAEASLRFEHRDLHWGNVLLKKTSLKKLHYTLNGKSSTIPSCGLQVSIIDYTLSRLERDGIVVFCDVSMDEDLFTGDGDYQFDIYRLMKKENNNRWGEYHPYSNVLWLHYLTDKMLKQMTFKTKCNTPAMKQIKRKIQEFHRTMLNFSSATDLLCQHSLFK

[11] = biological target: Homeodomain-interacting protein kinase 4 (Homo sapiens) (UniProt Q8NE63); assay: Inhibition of human HIPK4 assessed as residual activity at 1 uM using RRRFRPASPLRGPPK as substrate after 40 mins by [gamma-33ATP] radiometric assay relative to control
Chain of Homeodomain-interacting protein kinase 4 (Homo sapiens) (Q8NE63 whole entry): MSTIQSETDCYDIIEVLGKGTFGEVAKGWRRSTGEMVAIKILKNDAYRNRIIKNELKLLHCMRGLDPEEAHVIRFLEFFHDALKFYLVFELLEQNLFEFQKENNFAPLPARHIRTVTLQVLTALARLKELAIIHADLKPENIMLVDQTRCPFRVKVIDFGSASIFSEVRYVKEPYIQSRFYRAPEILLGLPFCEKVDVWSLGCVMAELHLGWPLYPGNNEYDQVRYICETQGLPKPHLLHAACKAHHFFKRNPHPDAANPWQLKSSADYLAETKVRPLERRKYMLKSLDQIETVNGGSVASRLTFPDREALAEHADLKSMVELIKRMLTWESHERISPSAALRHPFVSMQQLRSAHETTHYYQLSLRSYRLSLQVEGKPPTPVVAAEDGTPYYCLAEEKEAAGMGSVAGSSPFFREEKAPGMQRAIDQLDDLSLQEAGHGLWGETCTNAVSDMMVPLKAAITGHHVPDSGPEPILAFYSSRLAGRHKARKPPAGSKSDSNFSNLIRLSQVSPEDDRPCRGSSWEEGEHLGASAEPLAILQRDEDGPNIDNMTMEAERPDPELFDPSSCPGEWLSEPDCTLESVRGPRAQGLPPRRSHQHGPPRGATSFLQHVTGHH

[12] = biological target: Serine/threonine-protein kinase Nek3 (Homo sapiens) (UniProt P51956); assay: Inhibition of recombinant full-length human NEK3 assessed as residual activity at 1 uM using myelin basic protein as substrate measured after 40 mins in presence of [gamma33P]ATP by scintillation counting method relative to control
[13] = biological target: Serine/threonine-protein kinase Nek6 (Homo sapiens) (UniProt Q9HC98); assay: Inhibition of recombinant human NEK6 (2 to end residues) assessed as residual activity at 1 uM using FLAKSFGSPNRAYKK as substrate measured after 40 mins in presence of [gamma33P]ATP by scintillation counting method relative to control
[14] = biological target: Interferon-induced, double-stranded RNA-activated protein kinase (Homo sapiens) (UniProt P19525); assay: Inhibition of recombinant human PKR (252 to end residues) assessed as residual activity at 1 uM using RSRSRSRSRSRSRSR as substrate measured after 40 mins in presence of [gamma33P]ATP by scintillation counting method relative to control
Chain of Interferon-induced, double-stranded RNA-activated protein kinase (Homo sapiens) (P19525 whole entry): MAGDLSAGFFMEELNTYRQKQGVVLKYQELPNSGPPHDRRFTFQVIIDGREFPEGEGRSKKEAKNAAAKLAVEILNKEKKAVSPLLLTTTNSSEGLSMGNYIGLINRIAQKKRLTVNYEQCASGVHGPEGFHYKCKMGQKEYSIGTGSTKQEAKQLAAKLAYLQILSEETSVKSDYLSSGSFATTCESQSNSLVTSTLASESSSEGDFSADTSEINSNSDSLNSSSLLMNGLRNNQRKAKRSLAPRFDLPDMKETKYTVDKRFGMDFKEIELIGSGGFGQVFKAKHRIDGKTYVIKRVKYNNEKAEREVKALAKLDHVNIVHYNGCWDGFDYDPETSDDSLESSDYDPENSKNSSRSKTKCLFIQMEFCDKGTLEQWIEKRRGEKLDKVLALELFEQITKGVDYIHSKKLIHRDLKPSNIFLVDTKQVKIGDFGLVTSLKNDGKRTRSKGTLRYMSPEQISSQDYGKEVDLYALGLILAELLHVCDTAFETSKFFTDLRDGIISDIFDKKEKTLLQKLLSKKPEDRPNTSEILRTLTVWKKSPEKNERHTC

[15] = biological target: Serine/threonine-protein kinase PRP4 homolog (Homo sapiens) (UniProt Q13523); assay: Inhibition of recombinant human PRP4 (663 to end residues) assessed as residual activity at 1 uM using casein as substrate measured after 40 mins in presence of [gamma33P]ATP by scintillation counting method relative to control
Chain of Serine/threonine-protein kinase PRP4 homolog (Homo sapiens) (Q13523 whole entry, the tested form may be a part): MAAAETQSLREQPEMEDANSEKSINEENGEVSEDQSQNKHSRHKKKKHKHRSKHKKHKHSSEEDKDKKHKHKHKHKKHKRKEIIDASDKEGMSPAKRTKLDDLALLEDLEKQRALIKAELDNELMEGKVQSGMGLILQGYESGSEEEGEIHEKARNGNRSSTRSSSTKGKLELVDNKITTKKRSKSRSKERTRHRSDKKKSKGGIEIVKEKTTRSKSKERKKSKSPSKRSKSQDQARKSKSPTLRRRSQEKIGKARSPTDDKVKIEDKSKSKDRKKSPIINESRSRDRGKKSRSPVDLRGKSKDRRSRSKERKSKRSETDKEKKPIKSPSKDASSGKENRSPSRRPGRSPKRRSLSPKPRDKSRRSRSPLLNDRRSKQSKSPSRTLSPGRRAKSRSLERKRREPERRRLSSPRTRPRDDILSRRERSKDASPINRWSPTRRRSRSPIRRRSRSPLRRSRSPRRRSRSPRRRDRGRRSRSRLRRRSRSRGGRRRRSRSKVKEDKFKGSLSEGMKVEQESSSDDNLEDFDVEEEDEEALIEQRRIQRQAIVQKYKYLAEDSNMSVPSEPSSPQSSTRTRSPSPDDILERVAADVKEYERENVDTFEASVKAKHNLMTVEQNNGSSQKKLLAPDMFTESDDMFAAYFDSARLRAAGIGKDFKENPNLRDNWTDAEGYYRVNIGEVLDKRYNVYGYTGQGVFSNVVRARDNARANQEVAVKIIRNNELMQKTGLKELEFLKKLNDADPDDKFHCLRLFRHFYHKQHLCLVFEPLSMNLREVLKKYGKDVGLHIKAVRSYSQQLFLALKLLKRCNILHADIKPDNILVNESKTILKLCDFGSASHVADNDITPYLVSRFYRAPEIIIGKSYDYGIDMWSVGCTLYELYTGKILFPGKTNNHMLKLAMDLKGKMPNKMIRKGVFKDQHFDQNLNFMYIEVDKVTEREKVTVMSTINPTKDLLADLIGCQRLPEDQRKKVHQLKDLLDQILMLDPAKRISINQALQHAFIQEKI

[16] = biological target: Serine/threonine-protein kinase SIK2 (Homo sapiens) (UniProt Q9H0K1); assay: Inhibition of recombinant human SIK2 (1 to 276 residues) assessed as residual activity at 1 uM using KKKVSRSGLYRSPSMPENLNRPR as substrate measured after 40 mins in presence of [gamma33P]ATP by scintillation counting method relative to control
Chain of Serine/threonine-protein kinase SIK2 (Homo sapiens) (Q9H0K1 whole entry, looked up, the tested form may be a part): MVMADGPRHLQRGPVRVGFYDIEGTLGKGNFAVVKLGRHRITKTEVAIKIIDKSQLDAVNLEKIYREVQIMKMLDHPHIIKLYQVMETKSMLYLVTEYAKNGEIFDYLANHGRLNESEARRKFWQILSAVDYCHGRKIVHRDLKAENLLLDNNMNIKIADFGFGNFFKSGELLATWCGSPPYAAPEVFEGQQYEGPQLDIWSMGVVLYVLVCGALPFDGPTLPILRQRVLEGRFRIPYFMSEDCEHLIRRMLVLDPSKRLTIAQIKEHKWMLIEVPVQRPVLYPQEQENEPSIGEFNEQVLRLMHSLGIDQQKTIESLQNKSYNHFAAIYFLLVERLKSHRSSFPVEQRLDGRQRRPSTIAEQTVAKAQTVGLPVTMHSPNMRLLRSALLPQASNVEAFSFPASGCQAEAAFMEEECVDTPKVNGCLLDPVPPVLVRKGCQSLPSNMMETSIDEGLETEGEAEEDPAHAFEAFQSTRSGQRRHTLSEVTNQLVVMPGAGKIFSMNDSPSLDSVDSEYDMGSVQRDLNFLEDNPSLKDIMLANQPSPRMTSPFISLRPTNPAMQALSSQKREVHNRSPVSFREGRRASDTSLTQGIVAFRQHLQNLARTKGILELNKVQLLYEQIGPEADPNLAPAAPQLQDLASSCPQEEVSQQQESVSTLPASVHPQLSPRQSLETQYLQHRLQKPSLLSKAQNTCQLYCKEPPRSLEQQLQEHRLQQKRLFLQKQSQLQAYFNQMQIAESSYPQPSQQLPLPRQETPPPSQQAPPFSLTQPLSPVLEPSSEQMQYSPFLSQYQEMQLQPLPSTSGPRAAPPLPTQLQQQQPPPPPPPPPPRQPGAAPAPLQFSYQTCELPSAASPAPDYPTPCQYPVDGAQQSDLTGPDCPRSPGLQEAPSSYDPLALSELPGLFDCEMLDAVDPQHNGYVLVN

[17] = biological target: Serine/threonine-protein kinase ULK3 (Homo sapiens) (UniProt Q6PHR2); assay: Inhibition of recombinant full-length human ULK3 at 1 uM assessed as residual activity at 1 uM using casein as substrate measured after 40 mins in presence of [gamma33P]ATP by scintillation counting method relative to control
[18] = biological target: Serine/threonine-protein kinase WNK1 (Homo sapiens) (UniProt Q9H4A3); assay: Inhibition of human WNK1 (1 to 491 residues) assessed as residual activity at 1 uM using myelin basic protein as substrate measured after 120 mins in presence of [gamma33P]ATP by scintillation counting method relative to control
[19] = biological target: Mitogen-activated protein kinase kinase kinase 20 (Homo sapiens) (UniProt Q9NYL2); assay: Inhibition of recombinant full-length human ZAK at 1 uM assessed as residual activity at 1 uM using MBP as substrate measured after 40 mins in presence of [gamma33P]ATP by scintillation counting method relative to control
[20] = biological target: Tyrosine-protein kinase ZAP-70 (Homo sapiens) (UniProt P43403); assay: Inhibition of recombinant full-length human ZAP70 at 1 uM assessed as residual activity at 1 uM using poly(Glu, Tyr) 4:1 as substrate measured after 40 mins in presence of [gamma33P]ATP by scintillation counting method relative to control
Chain of Tyrosine-protein kinase ZAP-70 (Homo sapiens) (P43403 whole entry, the tested form may be a part): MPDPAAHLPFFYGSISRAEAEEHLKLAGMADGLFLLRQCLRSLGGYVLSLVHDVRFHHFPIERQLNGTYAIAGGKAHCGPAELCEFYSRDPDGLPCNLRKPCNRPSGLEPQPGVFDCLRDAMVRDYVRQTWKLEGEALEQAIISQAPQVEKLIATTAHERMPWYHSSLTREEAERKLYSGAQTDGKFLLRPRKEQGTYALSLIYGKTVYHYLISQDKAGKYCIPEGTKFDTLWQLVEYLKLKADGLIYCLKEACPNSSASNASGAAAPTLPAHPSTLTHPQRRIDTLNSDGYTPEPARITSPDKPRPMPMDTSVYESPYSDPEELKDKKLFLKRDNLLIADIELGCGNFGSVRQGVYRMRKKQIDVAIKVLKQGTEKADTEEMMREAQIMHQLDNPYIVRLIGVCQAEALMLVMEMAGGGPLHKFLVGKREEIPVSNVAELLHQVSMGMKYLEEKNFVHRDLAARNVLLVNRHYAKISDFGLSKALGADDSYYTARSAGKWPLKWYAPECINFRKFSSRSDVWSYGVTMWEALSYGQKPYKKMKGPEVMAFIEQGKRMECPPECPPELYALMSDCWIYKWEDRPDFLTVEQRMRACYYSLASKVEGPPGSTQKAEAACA

[21] = biological target: Phosphatidylinositol 3-kinase C2 domain-containing subunit gamma (Homo sapiens) (UniProt O75747); assay: Inhibition of recombinant human PI3KC2gamma (468 to 1203 residues) at 1 uM assessed as residual activity at 1 uM using phosphatidylinositol as substrate measured after 40 mins by HTRF assay

| SMILES | Activity [1] | Activity [2] | Activity [3] | Activity [4] | Activity [5] | Activity [6] | Activity [7] | Activity [8] | Activity [9] | Activity [10] | Activity [11] | Activity [12] | Activity [13] | Activity [14] | Activity [15] | Activity [16] | Activity [17] | Activity [18] | Activity [19] | Activity [20] | further results |
| --- | --- | --- | --- | --- | --- | --- | --- | --- | --- | --- | --- | --- | --- | --- | --- | --- | --- | --- | --- | --- | --- |
| C=CCOC(=O)c1cc(-c2ccc(/C=C3/NC(=S)NC3=O)o2)ccc1Cl | 90% | 24% | 87% | 26% | 88% | 104% | 94% | 100% | 106% | 87% | 97% | 94% | 98% | 98% | 92% | 104% | 99% | 94% | 115% | 107% | Activity [21]: 77% |
| N=C1NC(=O)/C(=C\c2ccc(-c3cccc([N+](=O)[O-])c3)o2)S1 | 98% | 44% | 57% | 50% | 80% | 76% | 93% | 96% | 104% | 59% | 92% | 89% | 102% | 98% | 86% | 99% | 100% | 97% | 114% | 106% | Activity [21]: 90% |

— ChEMBL document CHEMBL4334438, “Discovery of novel glycogen synthase kinase-3α inhibitors: Structure-based virtual screening, preliminary SAR and biological evaluation for treatment of acute myeloid leukemia” (Eur J Med Chem, 2019)
